{"source": "paper PMC11711049", "about": "(Cancer Science, 2024)", "system": "patients with advanced gastric cancer and cholangiocarcinoma", "assay": "Safety assessments", "type": "in vivo, human", "key": {"[1]": {"settings": "16 evaluable patients, 140 mg once daily"}}, "data": [{"smiles": "CNC(=O)n1ccc2cc(Oc3ccnc(NC(=O)c4ccc(C5CCN(CCO)CC5)cc4)c3)c(OCCOC)cc21", "note": "[Tasurgratinib]", "values": [{"measurement": "Malaise, TEAEs All grades", "setting": "140 mg once daily, N = 16", "value": "2 (12.5) n (%)"}, {"measurement": "Malaise, TEAEs Grade ≥3", "setting": "140 mg once daily, N = 16", "value": "0 (0.0) n (%)"}, {"measurement": "Malaise, TRAEs All grades", "setting": "140 mg once daily, N = 16", "value": "2 (12.5) n (%)"}, {"measurement": "Malaise, TRAEs Grade ≥3", "setting": "140 mg once daily, N = 16", "value": "0 (0.0) n (%)"}, {"measurement": "Nail disorder, TEAEs All grades", "setting": "140 mg once daily, N = 16", "value": "2 (12.5) n (%)"}, {"measurement": "Nail disorder, TEAEs Grade ≥3", "setting": "140 mg once daily, N = 16", "value": "0 (0.0) n (%)"}, {"measurement": "Nail disorder, TRAEs All grades", "setting": "140 mg once daily, N = 16", "value": "2 (12.5) n (%)"}, {"measurement": "Nail disorder, TRAEs Grade ≥3", "setting": "140 mg once daily, N = 16", "value": "0 (0.0) n (%)"}, {"measurement": "Nasopharyngitis, TEAEs All grades", "setting": "140 mg once daily, N = 16", "value": "2 (12.5) n (%)"}, {"measurement": "Nasopharyngitis, TEAEs Grade ≥3", "setting": "140 mg once daily, N = 16", "value": "0 (0.0) n (%)"}, {"measurement": "Nasopharyngitis, TRAEs All grades", "setting": "140 mg once daily, N = 16", "value": "0 (0.0) n (%)"}, {"measurement": "Nasopharyngitis, TRAEs Grade ≥3", "setting": "140 mg once daily, N = 16", "value": "0 (0.0) n (%)"}, {"measurement": "PPE syndrome, TEAEs All grades", "setting": "140 mg once daily, N = 16", "value": "10 (62.5) n (%)"}, {"measurement": "PPE syndrome, TEAEs Grade ≥3", "setting": "140 mg once daily, N = 16", "value": "0 (0.0) n (%)"}, {"measurement": "PPE syndrome, TRAEs All grades", "setting": "140 mg once daily, N = 16", "value": "10 (62.5) n (%)"}, {"measurement": "PPE syndrome, TRAEs Grade ≥3", "setting": "140 mg once daily, N = 16", "value": "0 (0.0) n (%)"}, {"measurement": "Paronychia, TEAEs All grades", "setting": "140 mg once daily, N = 16", "value": "9 (56.3) n (%)"}, {"measurement": "Paronychia, TEAEs Grade ≥3", "setting": "140 mg once daily, N = 16", "value": "0 (0.0) n (%)"}, {"measurement": "Paronychia, TRAEs All grades", "setting": "140 mg once daily, N = 16", "value": "8 (50.0) n (%)"}, {"measurement": "Paronychia, TRAEs Grade ≥3", "setting": "140 mg once daily, N = 16", "value": "0 (0.0) n (%)"}, {"measurement": "Platelet count decreased, TEAEs All grades", "setting": "140 mg once daily, N = 16", "value": "2 (12.5) n (%)"}, {"measurement": "Platelet count decreased, TEAEs Grade ≥3", "setting": "140 mg once daily, N = 16", "value": "0 (0.0) n (%)"}, {"measurement": "Platelet count decreased, TRAEs All grades", "setting": "140 mg once daily, N = 16", "value": "1 (6.3) n (%)"}, {"measurement": "Platelet count decreased, TRAEs Grade ≥3", "setting": "140 mg once daily, N = 16", "value": "0 (0.0) n (%)"}, {"measurement": "Pruritus, TEAEs All grades", "setting": "140 mg once daily, N = 16", "value": "2 (12.5) n (%)"}, {"measurement": "Pruritus, TEAEs Grade ≥3", "setting": "140 mg once daily, N = 16", "value": "0 (0.0) n (%)"}, {"measurement": "Pruritus, TRAEs All grades", "setting": "140 mg once daily, N = 16", "value": "2 (12.5) n (%)"}, {"measurement": "Pruritus, TRAEs Grade ≥3", "setting": "140 mg once daily, N = 16", "value": "0 (0.0) n (%)"}, {"measurement": "Pyrexia, TEAEs All grades", "setting": "140 mg once daily, N = 16", "value": "3 (18.8) n (%)"}, {"measurement": "Pyrexia, TEAEs Grade ≥3", "setting": "140 mg once daily, N = 16", "value": "0 (0.0) n (%)"}, {"measurement": "Pyrexia, TRAEs All grades", "setting": "140 mg once daily, N = 16", "value": "1 (6.3) n (%)"}, {"measurement": "Pyrexia, TRAEs Grade ≥3", "setting": "140 mg once daily, N = 16", "value": "0 (0.0) n (%)"}, {"measurement": "Stomatitis, TEAEs All grades", "setting": "140 mg once daily, N = 16", "value": "6 (37.5) n (%)"}, {"measurement": "Stomatitis, TEAEs Grade ≥3", "setting": "140 mg once daily, N = 16", "value": "1 (6.3) n (%)"}, {"measurement": "Stomatitis, TRAEs All grades", "setting": "140 mg once daily, N = 16", "value": "6 (37.5) n (%)"}, {"measurement": "Stomatitis, TRAEs Grade ≥3", "setting": "140 mg once daily, N = 16", "value": "0 (0.0) n (%)"}, {"measurement": "Tumor pain, TEAEs All grades", "setting": "140 mg once daily, N = 16", "value": "2 (12.5) n (%)"}, {"measurement": "Tumor pain, TEAEs Grade ≥3", "setting": "140 mg once daily, N = 16", "value": "1 (6.3) n (%)"}, {"measurement": "Tumor pain, TRAEs All grades", "setting": "140 mg once daily, N = 16", "value": "0 (0.0) n (%)"}, {"measurement": "Tumor pain, TRAEs Grade ≥3", "setting": "140 mg once daily, N = 16", "value": "0 (0.0) n (%)"}, {"measurement": "Tumor‐associated fever, TEAEs All grades", "setting": "140 mg once daily, N = 16", "value": "2 (12.5) n (%)"}, {"measurement": "Tumor‐associated fever, TEAEs Grade ≥3", "setting": "140 mg once daily, N = 16", "value": "0 (0.0) n (%)"}, {"measurement": "Tumor‐associated fever, TRAEs All grades", "setting": "140 mg once daily, N = 16", "value": "0 (0.0) n (%)"}, {"measurement": "Tumor‐associated fever, TRAEs Grade ≥3", "setting": "140 mg once daily, N = 16", "value": "0 (0.0) n (%)"}, {"measurement": "Vomiting, TEAEs All grades", "setting": "140 mg once daily, N = 16", "value": "2 (12.5) n (%)"}, {"measurement": "Vomiting, TEAEs Grade ≥3", "setting": "140 mg once daily, N = 16", "value": "1 (6.3) n (%)"}, {"measurement": "Vomiting, TRAEs All grades", "setting": "140 mg once daily, N = 16", "value": "0 (0.0) n (%)"}, {"measurement": "Vomiting, TRAEs Grade ≥3", "setting": "140 mg once daily, N = 16", "value": "0 (0.0) n (%)"}, {"measurement": "Weight decreased, TEAEs All grades", "setting": "140 mg once daily, N = 16", "value": "2 (12.5) n (%)"}, {"measurement": "Weight decreased, TEAEs Grade ≥3", "setting": "140 mg once daily, N = 16", "value": "0 (0.0) n (%)"}, {"measurement": "Weight decreased, TRAEs All grades", "setting": "140 mg once daily, N = 16", "value": "0 (0.0) n (%)"}, {"measurement": "Weight decreased, TRAEs Grade ≥3", "setting": "140 mg once daily, N = 16", "value": "0 (0.0) n (%)"}, {"measurement": "any‐grade TEAE: ALT increased", "setting": "[1]", "value": 18.8, "unit": "%"}, {"measurement": "any‐grade TEAE: AST increased", "setting": "[1]", "value": 25.0, "unit": "%"}, {"measurement": "any‐grade TEAE: abdominal distension", "setting": "[1]", "value": 25.0, "unit": "%"}, {"measurement": "any‐grade TEAE: anemia", "setting": "[1]", "value": 25.0, "unit": "%"}, {"measurement": "any‐grade TEAE: blood alkaline phosphatase increased", "setting": "[1]", "value": 18.8, "unit": "%"}, {"measurement": "any‐grade TEAE: blood creatinine increased", "setting": "[1]", "value": 31.3, "unit": "%"}, {"measurement": "any‐grade TEAE: constipation", "setting": "[1]", "value": 18.8, "unit": "%"}, {"measurement": "any‐grade TEAE: decreased appetite", "setting": "[1]", "value": 43.8, "unit": "%"}, {"measurement": "any‐grade TEAE: diarrhea", "setting": "[1]", "value": 37.5, "unit": "%"}, {"measurement": "any‐grade TEAE: dry mouth", "setting": "[1]", "value": 18.8, "unit": "%"}, {"measurement": "any‐grade TEAE: dry skin", "setting": "[1]", "value": 18.8, "unit": "%"}, {"measurement": "any‐grade TEAE: dysgeusia", "setting": "[1]", "value": 37.5, "unit": "%"}, {"measurement": "any‐grade TEAE: hyperphosphatemia", "setting": "[1]", "value": 100, "unit": "%"}, {"measurement": "any‐grade TEAE: hypoalbuminemia", "setting": "[1]", "value": 18.8, "unit": "%"}, {"measurement": "any‐grade TEAE: palmar‐plantar erythrodysesthesia (PPE) syndrome", "setting": "[1]", "value": 62.5, "unit": "%"}, {"measurement": "any‐grade TEAE: paronychia", "setting": "[1]", "value": 56.3, "unit": "%"}, {"measurement": "any‐grade TEAE: pyrexia", "setting": "[1]", "value": 18.8, "unit": "%"}, {"measurement": "any‐grade TEAE: stomatitis", "setting": "[1]", "value": 37.5, "unit": "%"}, {"measurement": "any‐grade treatment‐related TEAE: ALT increased", "setting": "16 patients, 140 mg once daily", "value": 12.5, "unit": "%"}, {"measurement": "any‐grade treatment‐related TEAE: AST increased", "setting": "16 patients, 140 mg once daily", "value": 18.8, "unit": "%"}, {"measurement": "any‐grade treatment‐related TEAE: PPE syndrome", "setting": "16 patients, 140 mg once daily", "value": 62.5, "unit": "%"}, {"measurement": "any‐grade treatment‐related TEAE: blood creatinine increased", "setting": "16 patients, 140 mg once daily", "value": 18.8, "unit": "%"}, {"measurement": "any‐grade treatment‐related TEAE: decreased appetite", "setting": "16 patients, 140 mg once daily", "value": 12.5, "unit": "%"}, {"measurement": "any‐grade treatment‐related TEAE: diarrhea", "setting": "16 patients, 140 mg once daily", "value": 25.0, "unit": "%"}, {"measurement": "any‐grade treatment‐related TEAE: dry mouth", "setting": "16 patients, 140 mg once daily", "value": 18.8, "unit": "%"}, {"measurement": "any‐grade treatment‐related TEAE: dry skin", "setting": "16 patients, 140 mg once daily", "value": 18.8, "unit": "%"}, {"measurement": "any‐grade treatment‐related TEAE: dysgeusia", "setting": "16 patients, 140 mg once daily", "value": 31.3, "unit": "%"}, {"measurement": "any‐grade treatment‐related TEAE: hyperphosphatemia", "setting": "16 patients, 140 mg once daily", "value": 100, "unit": "%"}, {"measurement": "any‐grade treatment‐related TEAE: malaise", "setting": "16 patients, 140 mg once daily", "value": 12.5, "unit": "%"}, {"measurement": "any‐grade treatment‐related TEAE: nail disorder", "setting": "16 patients, 140 mg once daily", "value": 12.5, "unit": "%"}, {"measurement": "any‐grade treatment‐related TEAE: paronychia", "setting": "16 patients, 140 mg once daily", "value": 50.0, "unit": "%"}, {"measurement": "any‐grade treatment‐related TEAE: pruritus", "setting": "16 patients, 140 mg once daily", "value": 12.5, "unit": "%"}, {"measurement": "any‐grade treatment‐related TEAE: stomatitis", "setting": "16 patients, 140 mg once daily", "value": 37.5, "unit": "%"}, {"measurement": "grade ≥3 treatment‐related TEAE: AST increased", "setting": "16 patients, 140 mg once daily", "value": 1, "unit": "n"}, {"measurement": "grade ≥3 treatment‐related TEAE: lipase increased", "setting": "16 patients, 140 mg once daily", "value": 1, "unit": "n"}, {"measurement": "grade ≥3 treatment‐related TEAE: retinopathy", "setting": "16 patients, 140 mg once daily", "value": 1, "unit": "n"}, {"measurement": "patients who experienced a TEAE of grade ≥3", "setting": "16 patients, 140 mg once daily", "value": 68.8, "unit": "%"}, {"measurement": "patients with treatment‐emergent SAEs", "setting": "five of 16 patients, 140 mg once daily", "value": 31.3, "unit": "%"}, {"measurement": "total treatment‐emergent serious AEs (SAEs) reported", "setting": "in five patients, 140 mg once daily", "value": 11}, {"measurement": "eye disorder: dry eye", "setting": "n = 2", "value": 12.5, "unit": "%"}, {"measurement": "recommended dose for subsequent phase II evaluation", "setting": "once daily", "value": 140, "unit": "mg"}, {"measurement": "patients with TEAEs leading to discontinuation of the study drug", "setting": "one patient (cholecystitis acute and septic shock, not related)", "value": 6.3, "unit": "%"}, {"measurement": "patients with dose reductions due to treatment‐related TEAEs", "setting": "six of 16 patients", "value": 37.5, "unit": "%"}, {"measurement": "patients with eye disorder events", "setting": "thirteen events in seven patients", "value": 43.8, "unit": "%"}, {"measurement": "patients who experienced grade ≥3 treatment‐related TEAEs", "setting": "two of 16 patients, 140 mg once daily", "value": 12.5, "unit": "%"}]}]}
